For one molecule, Kb results are on record in paper PMC10818589 (2024).

This experiment deals with d(5′-CGCGAATTCGCG-3′)2 (DNA, duplex) CGCGAATTCGCG
The experiment can be described thus: ethidium bromide displacement, fluorescence quenching, double-log plot. The conditions noted are these: phosphate buffer 100 mM (cation not given); pH 7.0, 298 K; 20 μM duplex saturated with EtBr (5.07 μM), displaced; compound slowly decomposes in water; apparent.

Take `[Ru+2].[Ru+2].[Ru+2].[Ru+2].[Ru+2].[Ru+2].[Ru+2].[Ru+2].[Ru+2].[Ru+2].[Ru+2].[Ru+2].c1cc2ccc1-c1ccc(cc1)-c1ccc(cc1)-c1ccc(cc1)-c1ccc(cc1)-c1ccc(cc1)-c1ccc(cc1)-c1ccc(cc1)-c1ccc(cc1)-c1ccc(cc1)-c1ccc(cc1)-c1ccc-2cc1.c1cc[cH-]c1.c1cc[cH-]c1.c1cc[cH-]c1.c1cc[cH-]c1.c1cc[cH-]c1.c1cc[cH-]c1.c1cc[cH-]c1.c1cc[cH-]c1.c1cc[cH-]c1.c1cc[cH-]c1.c1cc[cH-]c1.c1cc[cH-]c1`: the Kb was 3.162 × 10^5 ± 0.001 M^-1.
